# Key:
# ADRB2 = molecular target: T1, ADRB2 (Homo sapiens, UniProt P07550); experiment: chemiluminescence β-galactosidase reporter assay, ADRB2-tTA + ARRB2-TEV-NIa protease, clone 41 cells; format: cell-based; conditions: ADRB2-tTA low efficiency cleavage site
# T1 construct: to produce three, full length constructs encoding fusion proteins; expressed in transfected cells; host or cells: HEK-293T and clone 41 (HEK-293T derivative)
# [1] = molecular target: T2, human Type I Interferon Receptor (Homo sapiens, UniProt P17181+P48551); experiment: IFNAR1-GAL4-NF-κB + IFNAR2.2-TEV luciferase reporter assay, CHO-K1 cells; format: cell-based, hamster; conditions: control pcDNA3 plasmid
# T2 construct: expressed in transfected cells; host or cells: CHO-K1
# T2 sequence (P17181 28-557): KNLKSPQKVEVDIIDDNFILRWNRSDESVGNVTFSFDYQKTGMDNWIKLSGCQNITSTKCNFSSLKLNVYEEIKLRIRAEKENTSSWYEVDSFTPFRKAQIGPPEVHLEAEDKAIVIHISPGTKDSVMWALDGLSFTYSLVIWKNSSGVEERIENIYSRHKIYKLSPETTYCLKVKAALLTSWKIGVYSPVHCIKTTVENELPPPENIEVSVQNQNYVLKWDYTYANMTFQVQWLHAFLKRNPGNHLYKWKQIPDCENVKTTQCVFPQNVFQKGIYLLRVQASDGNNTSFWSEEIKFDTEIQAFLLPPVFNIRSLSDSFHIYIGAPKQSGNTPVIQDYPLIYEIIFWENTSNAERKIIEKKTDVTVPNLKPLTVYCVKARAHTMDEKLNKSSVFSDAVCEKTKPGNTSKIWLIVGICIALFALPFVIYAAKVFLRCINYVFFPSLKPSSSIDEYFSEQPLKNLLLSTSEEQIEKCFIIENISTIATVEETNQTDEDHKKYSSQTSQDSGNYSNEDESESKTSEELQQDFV
# T2 sequence (P48551 27-515): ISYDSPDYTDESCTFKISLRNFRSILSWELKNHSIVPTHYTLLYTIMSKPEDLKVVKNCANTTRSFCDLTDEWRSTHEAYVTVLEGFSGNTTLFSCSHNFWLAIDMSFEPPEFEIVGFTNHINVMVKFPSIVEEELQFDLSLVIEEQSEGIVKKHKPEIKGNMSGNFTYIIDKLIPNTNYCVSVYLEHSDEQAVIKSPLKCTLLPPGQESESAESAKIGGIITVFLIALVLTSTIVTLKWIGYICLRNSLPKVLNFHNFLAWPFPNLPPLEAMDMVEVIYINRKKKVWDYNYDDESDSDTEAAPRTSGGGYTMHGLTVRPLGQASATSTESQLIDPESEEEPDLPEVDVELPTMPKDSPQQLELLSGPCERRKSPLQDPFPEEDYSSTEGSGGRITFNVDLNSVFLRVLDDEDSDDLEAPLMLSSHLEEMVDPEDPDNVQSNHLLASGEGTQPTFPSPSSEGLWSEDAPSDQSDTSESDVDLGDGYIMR
# T1 sequence (P07550 whole entry, the tested form may be a part): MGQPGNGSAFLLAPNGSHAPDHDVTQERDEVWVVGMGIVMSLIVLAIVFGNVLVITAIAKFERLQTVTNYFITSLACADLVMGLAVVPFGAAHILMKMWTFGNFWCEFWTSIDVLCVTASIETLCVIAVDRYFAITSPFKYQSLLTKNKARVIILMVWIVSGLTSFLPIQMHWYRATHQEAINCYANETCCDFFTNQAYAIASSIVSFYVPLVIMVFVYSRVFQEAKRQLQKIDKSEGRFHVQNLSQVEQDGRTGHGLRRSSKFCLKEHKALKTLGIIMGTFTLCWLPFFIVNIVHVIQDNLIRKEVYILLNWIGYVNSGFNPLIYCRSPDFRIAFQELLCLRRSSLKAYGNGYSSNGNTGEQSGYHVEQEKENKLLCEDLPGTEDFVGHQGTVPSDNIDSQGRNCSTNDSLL
Molecule,"induction of reporter gene activity by agonist of another GPCR (P2Y1, P2Y2) (ADRB2)",effect on reporter gene activity in cells transfected with the reporter and control plasmids [1]
Nc1ncnc2c1ncn2[C@@H]1O[C@H](COP(=O)(O)OP(=O)(O)OP(=O)(O)O)[C@@H](O)[C@H]1O [ATP],Stimulation of another GPCR pathway was irrelevant,
IFN-α,,no effect
